Reference: patent US20230126447A1, “OCULAR DRUG DEPOT FOR COMPLEMENT-MEDIATED DISORDERS” (priority 2020, published 2023)
Read-outs that look alike come from different tables or passages of the source.

Assay: Ocular tissue distribution and pharmacokinetics, 7.5 and 15 mg/kg oral, pigmented Dutch Belted rabbits (Example 7)
Type: in vivo
Conditions: for DN AUC0-24 / DN Cmax / Cmax / half-life / AUC(0-t) / Ctrough / DN AUC0-12: male DB rabbits; for Cmax / half-life / AUC(0-t): po
Procedure: For Group 1, two animals/time point were sacrificed via an overdose of sodium pentobarbital at approximately 1, 6, 12, 24, 96, 168, and 240 hours postdose. Blood (approximately 2 mL) was collected from all animals at sacrifice into tubes containing K2EDTA via exsanguination (cardiac puncture).
For Groups 2 through 4, blood (approximately 2 mL) was collected via a jugular vein using a syringe and needle and was transferred into tubes containing K2EDTA at approximately 12 hours after the a.m. dose on Day 15 from the two animals designated for sacrifice at approximately 240 hours after the a.m. dose on Day 15.
For Groups 2 through 4, two animals/group/time point were sacrificed via an overdose of sodium pentobarbital prior to dosing on Day 15 and at approximately 1, 6, 24, 96, 168, and 240 hours after the a.m. dose on Day 15. Blood (approximately 2 mL) was collected from all animals at sacrifice into tubes containing K2EDTA via exsanguination (cardiac puncture).
Blood was maintained on wet ice, in chilled cryoracks, or at approximately 5° C. prior to centrifugation to obtain plasma. Centrifugation began within 1 hour of collection (Deviation). Plasma was placed into 96-well tubes with barcode labels. Plasma was maintained on dry ice prior to storage at approximately −70° C.
At the time of sacrifice, both eyes were enucleated, and the following tissues were collected. Each eye was flash-frozen in liquid nitrogen for 15 to 20 seconds. The enucleated eye was placed on dry ice or stored at approximately −70° C. for at least 2 hours. Within approximately 3 days, the frozen matrices were collected as right and left eyes for each matrix into the specific tube type listed.
At the time of frozen collection, the ocular tissues were rinsed with saline and blotted dry (as appropriate), weighed, and placed on dry ice. All ocular tissues were collected as single samples.

[1] = Retina (OU), Group 3, Day 15, 15 mg/kg/dose BID oral (30 mg/kg/day)
[2] = male, Dutch Belted, rabbit, choroid-retinal pigment epithelium (choroid-RPE), 15 mg/kg, Choroid-RPE (OU), Group 3, Day 15, 15 mg/kg/dose BID oral (30 mg/kg/day)
[3] = male, Dutch Belted, rabbit, plasma, 15 mg/kg, plasma, Group 3, Day 15, 15 mg/kg/dose BID oral (30 mg/kg/day)
[4] = male, Dutch Belted, rabbit, plasma, […], plasma, Group 1, Day 1, […] single oral dose
[5] = male, Dutch Belted, rabbit, plasma, […], plasma, Group 2, Day 15, […] BID oral (15 mg/kg/day)
[6] = plasma, Group 1, Day 1, […] single oral dose
[7] = plasma, Group 2, Day 15, […] BID oral (15 mg/kg/day)
[8] = plasma, Group 3, Day 15, 15 mg/kg/dose BID oral (30 mg/kg/day)

Which “DN AUC0-24” value [1] does the source give for `CC(=O)c1nn(CC(=O)N2C[C@H](F)C[C@H]2C(=O)Nc2cccc(Br)n2)c2ccc(-c3cnc(C)nc3)cc12` [Compound 1, (2S,4R)-1-(2-(3-Acetyl-5-(2-methylpyrimidin-5-yl)-1H-indazol-1-yl)acetyl)-N-(6-bromopyridin-2-yl)-4-fluoropyrrolidine-2-carboxamide] here?
Its value is 430 (h*ng/g)/(mg/kg/day).

What about the “DN Cmax” value [1] of the same molecule?
The value was 85.7 (ng/g)/(mg/kg/day).

And the Cmax (male, Dutch Belted, rabbit, choroid-RPE (choroid-retinal pigment epithelium), […], Choroid-RPE (OU), Group 1, Day 1, […] single oral dose)?
The Cmax was 726 ng/g.

What about the Cmax [2] of the same molecule?
The Cmax was 3970 ng/g.

And the half-life [2]?
The half-life was 76.2 h.

What about the half-life (male, Dutch Belted, rabbit, choroid-retinal pigment epithelium (choroid-RPE), […], Choroid-RPE (OU), Group 1, Day 1, […] single oral dose) of the same molecule?
Its half-life is 58.9 h.

What about the Cmax (male, Dutch Belted, rabbit, choroid-retinal pigment epithelium (choroid-RPE), […], Choroid-RPE (OU), Group 2, Day 15, […] BID oral (15 mg/kg/day)) of the same molecule?
Its Cmax is 2000 ng/g.

And the Cmax (male, Dutch Belted, rabbit, iris-ciliary body (ICB), 15 mg/kg, ICB (OU), Group 3, Day 15, 15 mg/kg/dose BID oral (30 mg/kg/day))?
Its Cmax is 2050 ng/g.

And the Cmax (male, Dutch Belted, rabbit, iris-ciliary body (ICB), […], ICB (OU), Group 1, Day 1, […] single oral dose)?
Its Cmax is 435 ng/g.

What about the Cmax (male, Dutch Belted, rabbit, iris-ciliary body (ICB), […], ICB (OU), Group 2, Day 15, […] BID oral (15 mg/kg/day)) of the same molecule?
The Cmax was 943 ng/g.

And the Cmax [3]?
The Cmax was 910 ng/mL.

And the half-life [3]?
Its half-life is 4.98 h.

What about the AUC(0-t) (male, Dutch Belted, rabbit, plasma, 15 mg/kg, plasma, Group 3, Day 15, 15 mg/kg/dose BID oral (30 mg/kg/day), read-out: AUC0-12) of the same molecule?
The AUC(0-t) was 3620 ng·h/mL.

And the AUC(0-t) (male, Dutch Belted, rabbit, plasma, 15 mg/kg, plasma, Group 3, Day 15, 15 mg/kg/dose BID oral (30 mg/kg/day), read-out: AUC0-24)?
Its AUC(0-t) is 4010 ng·h/mL.

What about the AUC(0-t) (male, Dutch Belted, rabbit, plasma, 15 mg/kg, plasma, Group 3, Day 15, 15 mg/kg/dose BID oral (30 mg/kg/day), read-out: AUC0-240) of the same molecule?
Its AUC(0-t) is 4390 ng·h/mL.

What about the AUC(0-t) (male, Dutch Belted, rabbit, plasma, 15 mg/kg, plasma, Group 3, Day 15, 15 mg/kg/dose BID oral (30 mg/kg/day), read-out: AUC0-t) of the same molecule?
Its AUC(0-t) is 4010 ng·h/mL.

What about the Cmax [4] of the same molecule?
The Cmax was 423 ng/mL.

And the half-life [4]?
The half-life was 6.01 h.

And the AUC(0-t) (male, Dutch Belted, rabbit, plasma, […], plasma, Group 1, Day 1, […] single oral dose, read-out: AUC0-12)?
The AUC(0-t) was 1450 ng·h/mL.

What about the AUC(0-t) (male, Dutch Belted, rabbit, plasma, […], plasma, Group 1, Day 1, […] single oral dose, read-out: AUC0-24) of the same molecule?
Its AUC(0-t) is 1560 ng·h/mL.

And the AUC(0-t) (male, Dutch Belted, rabbit, plasma, […], plasma, Group 1, Day 1, […] single oral dose, read-out: AUC0-240)?
Its AUC(0-t) is 1680 ng·h/mL.

What about the AUC(0-t) (male, Dutch Belted, rabbit, plasma, […], plasma, Group 1, Day 1, […] single oral dose, read-out: AUC0-t) of the same molecule?
Its AUC(0-t) is 1560 ng·h/mL.

And the Cmax [5]?
Its Cmax is 440 ng/mL.

What about the half-life [5] of the same molecule?
The half-life was 4.88 h.

And the AUC(0-t) (male, Dutch Belted, rabbit, plasma, […], plasma, Group 2, Day 15, […] BID oral (15 mg/kg/day), read-out: AUC0-12)?
Its AUC(0-t) is 1910 ng·h/mL.

And the AUC(0-t) (male, Dutch Belted, rabbit, plasma, […], plasma, Group 2, Day 15, […] BID oral (15 mg/kg/day), read-out: AUC0-24)?
Its AUC(0-t) is 2130 ng·h/mL.

And the AUC(0-t) (male, Dutch Belted, rabbit, plasma, […], plasma, Group 2, Day 15, […] BID oral (15 mg/kg/day), read-out: AUC0-240)?
The AUC(0-t) was 2370 ng·h/mL.

What about the AUC(0-t) (male, Dutch Belted, rabbit, plasma, […], plasma, Group 2, Day 15, […] BID oral (15 mg/kg/day), read-out: AUC0-t) of the same molecule?
Its AUC(0-t) is 2130 ng·h/mL.

And the concentration at 6 h (male, Dutch Belted, rabbit, retina, oral, […] BID, DB rabbits, Day 15, […] BID, read-out: Mean Retina Concentration)?
The concentration at 6 h was 97.9 ng/g.

What about the concentration at 24 h (male, Dutch Belted, rabbit, retina, oral, […] BID, DB rabbits, Day 15, […] BID, 24 hr, read-out: Mean Retina Concentration) of the same molecule?
Its concentration at 24 h is 44.3 ng/g.

And the concentration at 96 h (male, Dutch Belted, rabbit, retina, oral, […] BID, DB rabbits, Day 15, […] BID, 96 hr, read-out: Mean Retina Concentration)?
The concentration at 96 h was 13.9 ng/g.

What about the concentration at 168 h (male, Dutch Belted, rabbit, retina, oral, […] BID, DB rabbits, Day 15, […] BID, 168 hr, read-out: Mean Retina Concentration) of the same molecule?
Its concentration at 168 h is 10.7 ng/g.

And the concentration at 240 h (male, Dutch Belted, rabbit, retina, oral, […] BID, DB rabbits, Day 15, […] BID, 240 hr, read-out: Mean Retina Concentration)?
Its concentration at 240 h is 7.18 ng/g.

What about the concentration at 6 h (male, Dutch Belted, rabbit, retina, oral, […], DB rabbits, Day 1, […] single dose, read-out: Mean Retina Concentration) of the same molecule?
The concentration at 6 h was 27.5 ng/g.

What about the concentration at 12 h (male, Dutch Belted, rabbit, retina, oral, […], DB rabbits, Day 1, […] single dose, 12 hr, read-out: Mean Retina Concentration) of the same molecule?
Its concentration at 12 h is 16.5 ng/g.

What about the Cmax (male, Dutch Belted, rabbit, retina, 15 mg/kg, Retina (OU), Group 3, Day 15, 15 mg/kg/dose BID oral (30 mg/kg/day)) of the same molecule?
Its Cmax is 1290 ng/g.

What about the Cmax (male, Dutch Belted, rabbit, retina, […], Retina (OU), Group 1, Day 1, […] single oral dose) of the same molecule?
Its Cmax is 188 ng/g.

What about the Cmax (male, Dutch Belted, rabbit, retina, […], Retina (OU), Group 2, Day 15, […] BID oral (15 mg/kg/day)) of the same molecule?
Its Cmax is 306 ng/g.

What about the Ctrough [6] of the same molecule?
The Ctrough was 14.8 ng/mL.

What about the “DN AUC0-12” value [6] of the same molecule?
Its value is 194 (h*ng/mL)/(mg/kg/dose).

What about the “DN AUC0-24” value [6] of the same molecule?
Its value is 208 (h*ng/mL)/(mg/kg/day).

What about the “DN Cmax” value [6] of the same molecule?
Its value is 56.4 (ng/mL)/(mg/kg/day).

What about the Ctrough [7] of the same molecule?
Its Ctrough is 29.6 ng/mL.

What about the “DN AUC0-12” value [7] of the same molecule?
Its value is 255 (h*ng/mL)/(mg/kg/dose).

And the “DN AUC0-24” value [7]?
The value was 284 (h*ng/mL)/(mg/kg/day).

What about the “DN Cmax” value [7] of the same molecule?
Its value is 58.6 (ng/mL)/(mg/kg/day).

And the Ctrough [8]?
The Ctrough was 54.3 ng/mL.

And the “DN AUC0-12” value [8]?
The value was 242 (h*ng/mL)/(mg/kg/dose).

And the “DN AUC0-24” value [8]?
The value was 267 (h*ng/mL)/(mg/kg/day).

What about the “DN Cmax” value [8] of the same molecule?
The value was 60.7 (ng/mL)/(mg/kg/day).

And the “Tolerability, clinical observations” value (rabbits, single oral […] and BID ≥15 mg/kg/day)?
The value was “well tolerated”.
